{"source": "patent US20240197742A1", "about": "“Therapeutic Combinations of a CD19 Inhibitor and a BTK Inhibitor” (Acerta Pharma B.V., priority 2015, published 2024)", "system": "ID8 ovarian cancer", "assay": "ID8 syngeneic orthotropic ovarian cancer murine model", "assay_type": "in vivo, mouse", "conditions": "15 mg/kg/BID given orally", "from_the_text": "Human ovarian cancer models, including the ID8 syngeneic orthotropic ovarian cancer model and other animal models, are described in Fong and Kakar, J. Ovarian Res. 2009, 2, 12; Greenaway, et al., Gynecol. Oncol. 2008, 108, 385-94; Urzua, et al., Tumour Biol. 2005, 26, 236-44; Janat-Amsbury, et al., Anticancer Res. 2006, 26, 3223-28; Janat-Amsbury, et al., Anticancer Res. 2006, 26, 2785-89. […] The results of the study are shown in FIG. 13, FIG. 14, FIG. 15, FIG. 16, FIG. 17, FIG. 18, FIG. 19, and FIG. 20."}
{"smiles": "CC#CC(=O)N1CCC[C@H]1c1nc(-c2ccc(C(=O)Nc3ccccn3)cc2)c2c(N)nccn12", "note": "[Formula (2), (S)-4-(8-amino-3-(1-(but-2-ynoyl)pyrrolidin-2-yl)imidazo[1,5-α]pyrazin-1-yl)-N-(pyridin-2-yl)benzamide]", "values": [{"measurement": "CD8+ T cells", "value": "increase"}, {"measurement": "immunosuppressive tumor associated Tregs", "value": "significant reduction"}, {"measurement": "B regulatory cells (Bregs)", "setting": "tumor-bearing mice", "value": "significant reduction"}, {"measurement": "immunosuppressive tumor associated lymphocytes", "setting": "tumor-bearing mice", "value": "significant reduction"}, {"measurement": "total B cells", "setting": "tumor-bearing mice", "value": "significant reduction"}, {"measurement": "ID8 ovarian cancer growth", "setting": "versus vehicle", "value": "impairs"}]}
